Data published in patent publication US8785436B2, “1,3-oxazines as BACE 1 and/or BACE2 inhibitors” (Hoffmann-La Roche Inc., priority 2011, dated 2014).
pIC50: −log10 of the molar value.

What was measured:
BACE2 = molecular target: T1, BACE2 (Rattus norvegicus, UniProt Q6IE75); test: BACE inhibition by measuring cellular TMEM27 cleavage (INS-TMEM27 cells, ELISA); type: cell-based; conditions: INS-TMEM27 (Ins1e rat) cells, shed human TMEM27 by ELISA; read-out: BACE2 cell act. IC50
T1 construct: endogenous cellular BACE2 in the Ins1e rat cell line; endogenous in cells; host or cells: INS-TMEM27 (INS1e-derived rat cell line with TetOn-inducible full-length hTMEM27)
T1 sequence (Q6IE75 63-514): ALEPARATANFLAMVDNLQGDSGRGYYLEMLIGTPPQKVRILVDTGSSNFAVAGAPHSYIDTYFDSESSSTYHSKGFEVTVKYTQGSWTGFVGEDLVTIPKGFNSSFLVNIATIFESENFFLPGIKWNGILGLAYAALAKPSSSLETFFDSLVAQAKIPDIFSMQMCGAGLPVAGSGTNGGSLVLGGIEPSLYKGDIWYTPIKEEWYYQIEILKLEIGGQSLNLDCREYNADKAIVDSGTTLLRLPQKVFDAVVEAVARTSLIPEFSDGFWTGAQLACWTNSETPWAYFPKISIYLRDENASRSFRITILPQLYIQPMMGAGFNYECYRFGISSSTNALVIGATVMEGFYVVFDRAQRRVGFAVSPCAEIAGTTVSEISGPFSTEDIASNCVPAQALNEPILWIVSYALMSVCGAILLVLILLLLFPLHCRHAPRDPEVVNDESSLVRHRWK
Description: Assay for BACE Inhibition by Measuring Cellular TMEM27 Cleavage:
The assay uses the principle of inhibition of human TMEM27 cleavage by endogenous cellular BACE2 in the Ins1e rat cell line and shedding from the cell surface into the culture medium, followed by detection in an ELISA assay Inhibition of BACE2 prevents the cleavage and shedding in a dose-dependent manner.
The stable cell line “INS-TMEM27” represents an INS1e-derived cell line with inducible expression (using the TetOn system) of full-length hTMEM27 in a doxycycline-dependent manner. The cells are cultured throughout the experiment in RPMI1640+Glutamax (Invitrogen) Penicillin/Streptomycin, 10% Fetal bovine serum, […], […], 100 micrograms/ml G418 and 100 microgram/ml hygromycin and are grown inadherent culture at 37° C. in a standard CO2 cell culture incubator.
INS-TMEM27 cells are seeded in 96-well plates. After 2 days in culture, BACE2 inhibitor is added in a range of concentrations as required by the assay and after a further two hours, doxycycline is added to a final concentration of 500 ng/ml. The cells are incubated for a further 46 hours and the supernatant harvested for detection of shed TMEM27.
An ELISA assay (using a pair of mouse anti-human-TMEM27 antibodies, raised against the extracellular domain of TMEM27) is used for detection of TMEM27 in the culture medium. An EC50 for BACE2 inhibition is calculated using the ELISA readout for each inhibitor concentration with standard curve-fitting software such as XLFit for the Excel spreadsheet program.

BACE1 = molecular target: T2, BACE1 (Homo sapiens, UniProt P56817); test: Cellular Aβ-lowering assay a) (Aβ40 ELISA, HEK293 APP cells); type: cell-based; conditions: cellular assay a): HEK293 APP695 cells, 18-20 hrs incubation, read-out: BACE1 cell act. Aβ40 IC50
T2 construct: Human HEK293 cells which are stably transfected with a vector expressing a cDNA of the human APP wt gene (APP695); endogenous in cells; host or cells: HEK293 cells stably expressing human APP695 wt
Procedure: Cellular Aβ-Lowering Assay:
a) Human HEK293 cells which are stably transfected with a vector expressing a cDNA of the human APP wt gene (APP695) were used to assess the potency of the compounds in a cellular assay. The cells were seeded in 96-well microtiter plates in cell culture medium (Iscove, plus 10% (v/v) fetal bovine serum, glutamine, penicillin/streptomycin) to about 80% confluence and the compounds were added at a 10× concentration in 1/10 volume of medium without FCS containing 8% DMSO (final concentration of DMSO was kept at 0.8% v/v). After 18-20 hrs incubation at 37° C. and 5% CO2 in a humidified incubator the culture supernatant was harvested for the determination of Aβ40 concentrations. 96 well ELISA plates (e.g., Nunc MaxiSorb) were coated with monoclonal antibody which specifically recognize the C-terminal end of Aβ40 (Brockhaus et al., NeuroReport 9, 1481-1486; 1998). After blocking of non-specific binding sites with e.g. 1% BSA and washing, the culture supernatants were added in suitable dilutions together with a horseradish peroxidase-coupled Aβ detection antibody (e.g., antibody 4G8, Senetek, Maryland Heights, Mo.) and incubated for 5 to 7 hrs. Subsequently the wells of the microtiter plate were washed extensively with Tris-buffered saline containing 0.05% Tween 20 and the assay was developed with tetramethylbenzidine/H2O2 in citric acid buffer. After stopping the reaction with one volume 1 NH2SO4 the reaction was measured in an ELISA reader at 450 nm wavelength. The concentrations of Aβ in the culture supernatants were calculated from a standard curve obtained with known amounts of pure Aβ peptide.

T2 sequence (P56817 46-501): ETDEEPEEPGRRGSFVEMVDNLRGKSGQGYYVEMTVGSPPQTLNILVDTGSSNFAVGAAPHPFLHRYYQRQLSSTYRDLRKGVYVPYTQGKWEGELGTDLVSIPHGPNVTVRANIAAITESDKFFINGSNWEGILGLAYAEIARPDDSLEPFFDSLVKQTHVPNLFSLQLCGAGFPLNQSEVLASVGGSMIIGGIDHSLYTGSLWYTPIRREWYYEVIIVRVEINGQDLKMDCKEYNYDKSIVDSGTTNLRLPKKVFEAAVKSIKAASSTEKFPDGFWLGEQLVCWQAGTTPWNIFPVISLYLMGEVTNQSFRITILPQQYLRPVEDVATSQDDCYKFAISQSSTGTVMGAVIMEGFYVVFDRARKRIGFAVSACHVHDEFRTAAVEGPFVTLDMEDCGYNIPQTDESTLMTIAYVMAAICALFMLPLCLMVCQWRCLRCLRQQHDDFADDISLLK

pIC50 (BACE2)	pIC50 (BACE1)	SMILES
7.17	–	Cc1nc(C(C)Nc2ccc(F)c([C@@]3(C)N=C(N)OC[C@]3(C)F)c2)c(C(F)(F)F)o1 (mixture of isomers) [Example 14, (4R,5R)-5-Fluoro-4-{2-fluoro-5-[(RS)-1-(2-methyl-5-trifluoromethyl-oxazol-4-yl)-ethylamino]-phenyl}-4,5-dimethyl-5,6-dihydro-4H-[1,3]oxazin-2-ylamine]
6.12	7.96	C[C@]1(c2cc(NC3CCc4cc(C#N)cnc43)ccc2F)N=C(N)OCC1(F)F (mixture of isomers) [Example 22, (RS)-7-[3-((R)-2-Amino-5,5-difluoro-4-methyl-5,6-dihydro-4H-[1,3]oxazin-4-yl)-4-fluoro-phenylamino]-6,7-dihydro-5H-[1]pyrindine-3-carbonitrile]
5.77	7.14	C[C@]1(c2cc(NC3CCc4cc(Cl)cnc43)ccc2F)N=C(N)OCC1(F)F (mixture of isomers) [Example 23, [3-((R)-2-Amino-5,5-difluoro-4-methyl-5,6-dihydro-4H-[1,3]oxazin-4-yl)-4-fluoro-phenyl]-((RS)-3-chloro-6,7-dihydro-5H-[1]pyrindin-7-yl)-amine]
6.74	7.89	C[C@@]1(c2cc(NCc3nn(C(F)F)cc3Cl)ccc2F)CCOC(N)=N1 [Example 1, (S)-4-{5-[(4-Chloro-1-difluoromethyl-1H-pyrazol-3-ylmethyl)-amino]-2-fluoro-phenyl}-4-methyl-5,6-dihydro-4H-[1,3]oxazin-2-ylamine]
6.01	6.51	COc1ccccc1Nc1ccc(F)c([C@@]2(C)N=C(N)OC[C@@H]2F)c1 [Example 3, (4R,5R)-5-Fluoro-4-[2-fluoro-5-(2-methoxy-phenylamino)-phenyl]-4-methyl-5,6-dihydro-4H-[1,3]oxazin-2-ylamine]
5.74	6.43	C[C@]1(c2cc(Nc3ccccc3OC(F)F)ccc2F)N=C(N)OC[C@@H]1F [Example 4, (4R,5R)-4-[5-(2-Difluoromethoxy-phenylamino)-2-fluoro-phenyl]-5-fluoro-4-methyl-5,6-dihydro-4H-[1,3]oxazin-2-ylamine]
5.95	6.27	C[C@]1(c2cc(NCc3cccs3)ccc2F)N=C(N)OC[C@@H]1F [Example 5, (4R,5R)-5-Fluoro-4-{2-fluoro-5-[(thiophen-2-ylmethyl)-amino]-phenyl}-4-methyl-5,6-dihydro-4H-[1,3]oxazin-2-ylamine]
6.62	6.11	C[C@]1(c2cc(NCc3ccccc3F)ccc2F)N=C(N)OC[C@@H]1F [Example 7, (4R,5R)-5-Fluoro-4-[2-fluoro-5-(2-fluoro-benzylamino)-phenyl]-4-methyl-5,6-dihydro-4H-[1,3]oxazin-2-ylamine]
6.79	7.66	C[C@]1(c2cc(NCC3CC3)ccc2F)N=C(N)OC[C@@H]1F [Example 8, (4R,5R)-4-[5-(Cyclopropylmethyl-amino)-2-fluoro-phenyl]-5-fluoro-4-methyl-5,6-dihydro-4H-[1,3]oxazin-2-ylamine]
6.23	7.41	C[C@]1(F)COC(N)=N[C@]1(C)c1cc(NCc2nn(C(F)F)cc2Cl)ccc1F [Example 12, (4R,5R)-4-{5-[(4-Chloro-1-difluoromethyl-1H-pyrazol-3-ylmethyl)-amino]-2-fluoro-phenyl}-5-fluoro-4,5-dimethyl-5,6-dihydro-4H-[1,3]oxazin-2-ylamine]
7.10	7.32	Cn1cc(Cl)c(CNc2ccc(F)c([C@@]3(C)N=C(N)OC[C@]3(C)F)c2)n1 [Example 13, (4R,5R)-4-{5-[(4-Chloro-1-methyl-1H-pyrazol-3-ylmethyl)-amino]-2-fluoro-phenyl}-5-fluoro-4,5-dimethyl-5,6-dihydro-4H-[1,3]oxazin-2-ylamine]
5.60	6.95	C[C@]1(c2cc(NCc3nn(C(F)F)cc3Cl)ccc2F)N=C(N)OCC1(F)F [Example 16, (R)-4-{5-[(4-Chloro-1-difluoromethyl-1H-pyrazol-3-ylmethyl)-amino]-2-fluoro-phenyl}-5,5-difluoro-4-methyl-5,6-dihydro-4H-[1,3]oxazin-2-ylamine]
5.78	6.51	C[C@]1(c2cc(NCC3CC3)ccc2F)N=C(N)OCC1(F)F [Example 25, (R)-4-[5-(Cyclopropylmethyl-amino)-2-fluoro-phenyl]-5,5-difluoro-4-methyl-5,6-dihydro-4H-[1,3]oxazin-2-ylamine]
4.96	5.22	Cc1ccc(Cc2cc3cc(F)c([C@@]4(C)N=C(N)OCC4(F)F)cc3[nH]2)cc1 [Example 40, (R)-5,5-Difluoro-4-[5-fluoro-2-(4-methyl-benzyl)-3H-indol-6-yl]-4-methyl-5,6-dihydro-4H-[1,3]oxazin-2-ylamine]
5.38	5.78	CC1(C)OC(N)=N[C@](C)(c2cc(Nc3ccccc3C#N)ccc2F)C1(F)F [Example 43, 2-[3-((R)-2-Amino-5,5-difluoro-4,6,6-trimethyl-5,6-dihydro-4H-[1,3]oxazin-4-yl)-4-fluoro-phenylamino]-benzonitrile]
5.53	5.68	COc1ccccc1Nc1ccc(F)c([C@@]2(C)N=C(N)OC(C)(C)C2(F)F)c1 [Example 44, (R)-5,5-Difluoro-4-[2-fluoro-5-(2-methoxy-phenylamino)-phenyl]-4,6,6-trimethyl-5,6-dihydro-4H-[1,3]oxazin-2-ylamine]
5.85	6.54	CC1(C)OC(N)=N[C@](C)(c2cc(NC3CCCC3)ccc2F)C1(F)F [Example 48, (R)-4-(5-Cyclopentylamino-2-fluoro-phenyl)-5,5-difluoro-4,6,6-trimethyl-5,6-dihydro-4H-[1,3]oxazin-2-ylamine]
5.47	4.84	CC1(C)OC(N)=N[C@](C)(c2cc(-c3cc(Cl)cc(Cl)c3)ccc2F)C1(F)F [Example 51, (R)-4-(3′,5′-Dichloro-4-fluoro-biphenyl-3-yl)-5,5-difluoro-4,6,6-trimethyl-5,6-dihydro-4H-[1,3]oxazin-2-ylamine]
